# In US10696686B2, “Herbicidally active (alkynyl-phenyl)-substituted cyclic dione compounds and derivatives thereof” (Syngenta Limited, priority 2013, dated 2020):
# Tested on: Abutilon theophrasti (ABUTH)
# Test: Biological Example 1A glasshouse assay, post-emergence application
# Assay type: in vivo
# Conditions: 312 h, 250 g/ha, 13 days after application, read-out: Percentage phytotoxicity ABUTH
# Method: (§1) Seeds of a variety of test plant species were sown in standard soil ** in pots. After cultivation for one day (pre-emergence) or after 8 days cultivation (post-emergence) under controlled conditions in a glasshouse (at 24/16° C., day/night; 14 hours light; 65% humidity), the plants were sprayed with an aqueous spray solution derived from the formulation of the technical active ingredient (the test herbicide) in acetone/water (50:50) solution containing 0.5% Tween 20 (polyoxyethylene sorbitan monolaurate, CAS Reg. No. 9005-64-5). The test plants were then grown on under controlled conditions in a glasshouse (at 24/16° C., day/night; 14 hours light; 65% humidity) and watered twice daily. 13 Days after application of the test herbicide, for pre- and post-emergence, the test was evaluated visually for percentage phytotoxicity to each plant (where 100%=total damage to plant; 0%=no damage to plant). Generally, each test herbicide is only tested on 1 plant per plant species for each application rate tested and for each application timing. ** The “standard soil” in Biological Example 1 is usually a “sand” or “sandy loam” type of soil.
# (§2) Dicotyledonous weeds: ABUTH=Abutilon theophrasti; AMARE=Amaranthus retroflexus. Grassy monocotyledonous weeds: SETFA=Setaria faberi; ALOMY=Alopecurus myosuroides; ECHCG=Echinochloa crus-galli; ZEAMX=Zea mays (corn, maize, e.g. volunteer corn). For Compound A16, the grassy monocotyledonous weed LOLPE (Lolium perenne) was used in the test insterad of ALOMY.
row,Structure (SMILES),pest or weed control at 250 g/ha
1,C#Cc1cc(F)c(C2C(=O)CC3(CCOCC3)CC2=O)c(OC)c1 [Compound B2],0%
2,CC#Cc1cc(F)c(C2C(=O)CC3(CCOCC3)CC2=O)c(OC)c1 [Compound A14],0%
3,CC#Cc1cc(F)c(C2C(=O)CC(CC(C)SC)CC2=O)c(OC)c1 (centres unmarked) [Compound A12],0%

# Tested on: Alopecurus myosuroides (ALOMY)
# Test: as above
# Assay type: in vivo
# Conditions: 250 g/ha, 13 days after application
# Method: as §1, §2
row,Structure (SMILES),Percentage phytotoxicity ALOMY
1,C#Cc1cc(F)c(C2C(=O)CC3(CCOCC3)CC2=O)c(OC)c1 [Compound B2],10%
2,CC#Cc1cc(F)c(C2C(=O)CC3(CCOCC3)CC2=O)c(OC)c1 [Compound A14],40%
3,CC#Cc1cc(F)c(C2C(=O)CC(CC(C)SC)CC2=O)c(OC)c1 (centres unmarked) [Compound A12],0%

# Same assay, conditions: 250 g/ha, Biological Example 1A
row,Structure (SMILES),herbicidal potency against ALOMY compared with compound B2 (in words)
1,CC#Cc1cc(F)c(C2C(=O)CC3(CCOCC3)CC2=O)c(OC)c1 [Compound A14],more potent herbicide

# Tested on: Echinochloa crus-galli (ECHCG)
# Test: as above
# Assay type: in vivo
# Conditions: 312 h, 250 g/ha, 13 days after application, read-out: Percentage phytotoxicity ECHCG
# Method: as §1, §2
row,Structure (SMILES),pest or weed control at 250 g/ha
1,C#Cc1cc(F)c(C2C(=O)CC3(CCOCC3)CC2=O)c(OC)c1 [Compound B2],30%
2,CC#Cc1cc(F)c(C2C(=O)CC3(CCOCC3)CC2=O)c(OC)c1 [Compound A14],20%
3,CC#Cc1cc(F)c(C2C(=O)CC(CC(C)SC)CC2=O)c(OC)c1 (centres unmarked) [Compound A12],20%

# Tested on: Amaranthus retroflexus (AMARE)
# Test: as above
# Assay type: in vivo
# Conditions: 312 h, 250 g/ha, 13 days after application, read-out: Percentage phytotoxicity AMARE
# Method: as §1, §2
row,Structure (SMILES),pest or weed control at 250 g/ha
1,C#Cc1cc(F)c(C2C(=O)CC3(CCOCC3)CC2=O)c(OC)c1 [Compound B2],0%
2,CC#Cc1cc(F)c(C2C(=O)CC3(CCOCC3)CC2=O)c(OC)c1 [Compound A14],10%
3,CC#Cc1cc(F)c(C2C(=O)CC(CC(C)SC)CC2=O)c(OC)c1 (centres unmarked) [Compound A12],0%

# Tested on: Setaria faberi (SETFA)
# Test: as above
# Assay type: in vivo
# Conditions: Setaria faberi, 312 h; post-emergence, 250 g/ha, 13 days after application; read-out: Percentage phytotoxicity SETFA
# Method: as §1, §2
row,Structure (SMILES),pest or weed control at 250 g/ha
1,C#Cc1cc(F)c(C2C(=O)CC3(CCOCC3)CC2=O)c(OC)c1 [Compound B2],60%
2,CC#Cc1cc(F)c(C2C(=O)CC3(CCOCC3)CC2=O)c(OC)c1 [Compound A14],70%
3,CC#Cc1cc(F)c(C2C(=O)CC(CC(C)SC)CC2=O)c(OC)c1 (centres unmarked) [Compound A12],0%

# Same assay, conditions: applied at about 250 g/ha post-emergence
row,Structure (SMILES),post-emergent herbicidal potency on SETFA (in words)
1,CC#Cc1cc(F)c(C2C(=O)CC3(CCOCC3)CC2=O)c(OC)c1 [Compound A14],potent post-emergent herbicides

# Same assay, conditions: post-emergence, 250 g/ha, Biological Example 1A; more potent 'perhaps also' on SETFA
row,Structure (SMILES),herbicidal potency against SETFA compared with compound B2 (in words)
1,CC#Cc1cc(F)c(C2C(=O)CC3(CCOCC3)CC2=O)c(OC)c1 [Compound A14],perhaps also

# Tested on: Zea mays (ZEAMX, corn, maize, e.g. volunteer corn)
# Test: as above
# Assay type: in vivo
# Conditions: Zea mays, 312 h; post-emergence, 250 g/ha, 13 days after application; read-out: Percentage phytotoxicity ZEAMX
# Method: as §1, §2
row,Structure (SMILES),pest or weed control at 250 g/ha
1,C#Cc1cc(F)c(C2C(=O)CC3(CCOCC3)CC2=O)c(OC)c1 [Compound B2],40%
2,CC#Cc1cc(F)c(C2C(=O)CC3(CCOCC3)CC2=O)c(OC)c1 [Compound A14],80%
3,CC#Cc1cc(F)c(C2C(=O)CC(CC(C)SC)CC2=O)c(OC)c1 (centres unmarked) [Compound A12],30%

# Same assay, conditions: applied at about 250 g/ha post-emergence
row,Structure (SMILES),post-emergent herbicidal potency on ZEAMX (in words)
1,CC#Cc1cc(F)c(C2C(=O)CC3(CCOCC3)CC2=O)c(OC)c1 [Compound A14],potent post-emergent herbicides

# Same assay, conditions: post-emergence, 250 g/ha, Biological Example 1A
row,Structure (SMILES),herbicidal potency against ZEAMX compared with compound B2 (in words)
1,CC#Cc1cc(F)c(C2C(=O)CC3(CCOCC3)CC2=O)c(OC)c1 [Compound A14],more potent herbicide

# Tested on: Abutilon theophrasti (ABUTH)
# Test: Biological Example 1B glasshouse assay, pre-emergence application
# Assay type: in vivo
# Conditions: 250 g/ha, 13 days after application
# Method: as §1, §2
row,Structure (SMILES),Percentage phytotoxicity ABUTH
1,C#Cc1cc(F)c(C2C(=O)CC3(CCOCC3)CC2=O)c(OC)c1 [Compound B2],0%
2,CC#Cc1cc(F)c(C2C(=O)CC3(CCOCC3)CC2=O)c(OC)c1 [Compound A14],0%

# Tested on: Alopecurus myosuroides (ALOMY)
# Test: as above
# Assay type: in vivo
# Conditions: 250 g/ha, 13 days after application
# Method: as §1, §2
row,Structure (SMILES),Percentage phytotoxicity ALOMY
1,C#Cc1cc(F)c(C2C(=O)CC3(CCOCC3)CC2=O)c(OC)c1 [Compound B2],50%
2,CC#Cc1cc(F)c(C2C(=O)CC3(CCOCC3)CC2=O)c(OC)c1 [Compound A14],40%

# Tested on: Echinochloa crus-galli (ECHCG)
# Test: as above
# Assay type: in vivo
# Conditions: 250 g/ha, 13 days after application
# Method: as §1, §2
row,Structure (SMILES),Percentage phytotoxicity ECHCG
1,C#Cc1cc(F)c(C2C(=O)CC3(CCOCC3)CC2=O)c(OC)c1 [Compound B2],40%
2,CC#Cc1cc(F)c(C2C(=O)CC3(CCOCC3)CC2=O)c(OC)c1 [Compound A14],70%

# Tested on: Amaranthus retroflexus (AMARE)
# Test: as above
# Assay type: in vivo
# Conditions: 250 g/ha, 13 days after application
# Method: as §1, §2
row,Structure (SMILES),Percentage phytotoxicity AMARE
1,C#Cc1cc(F)c(C2C(=O)CC3(CCOCC3)CC2=O)c(OC)c1 [Compound B2],40%
2,CC#Cc1cc(F)c(C2C(=O)CC3(CCOCC3)CC2=O)c(OC)c1 [Compound A14],20%

# Tested on: Setaria faberi (SETFA)
# Test: as above
# Assay type: in vivo
# Conditions: 250 g/ha, 13 days after application
# Method: as §1, §2
row,Structure (SMILES),Percentage phytotoxicity SETFA
1,C#Cc1cc(F)c(C2C(=O)CC3(CCOCC3)CC2=O)c(OC)c1 [Compound B2],30%
2,CC#Cc1cc(F)c(C2C(=O)CC3(CCOCC3)CC2=O)c(OC)c1 [Compound A14],20%

# Tested on: Zea mays (ZEAMX, corn, maize, e.g. volunteer corn)
# Test: as above
# Assay type: in vivo
# Conditions: 250 g/ha, 13 days after application
# Method: as §1, §2
row,Structure (SMILES),Percentage phytotoxicity ZEAMX
1,C#Cc1cc(F)c(C2C(=O)CC3(CCOCC3)CC2=O)c(OC)c1 [Compound B2],50%
2,CC#Cc1cc(F)c(C2C(=O)CC3(CCOCC3)CC2=O)c(OC)c1 [Compound A14],30%
